Reference: ChEMBL document CHEMBL1147946, “3-{2-[Bis-(4-fluorophenyl)methoxy]ethyl}-6-substituted-3,6-diazabicyclo[3.1.1]heptanes as novel potent dopamine uptake inhibitors” (Bioorg Med Chem, 2007)

Biological target: Sodium-dependent dopamine transporter (Rattus norvegicus, UniProt P23977)
Test: Inhibition of [3H]dopamine uptake at DAT in Sprague-Dawley rat striatum synaptosome
Format: tissue-based

Sequence of Sodium-dependent dopamine transporter (P23977 whole entry): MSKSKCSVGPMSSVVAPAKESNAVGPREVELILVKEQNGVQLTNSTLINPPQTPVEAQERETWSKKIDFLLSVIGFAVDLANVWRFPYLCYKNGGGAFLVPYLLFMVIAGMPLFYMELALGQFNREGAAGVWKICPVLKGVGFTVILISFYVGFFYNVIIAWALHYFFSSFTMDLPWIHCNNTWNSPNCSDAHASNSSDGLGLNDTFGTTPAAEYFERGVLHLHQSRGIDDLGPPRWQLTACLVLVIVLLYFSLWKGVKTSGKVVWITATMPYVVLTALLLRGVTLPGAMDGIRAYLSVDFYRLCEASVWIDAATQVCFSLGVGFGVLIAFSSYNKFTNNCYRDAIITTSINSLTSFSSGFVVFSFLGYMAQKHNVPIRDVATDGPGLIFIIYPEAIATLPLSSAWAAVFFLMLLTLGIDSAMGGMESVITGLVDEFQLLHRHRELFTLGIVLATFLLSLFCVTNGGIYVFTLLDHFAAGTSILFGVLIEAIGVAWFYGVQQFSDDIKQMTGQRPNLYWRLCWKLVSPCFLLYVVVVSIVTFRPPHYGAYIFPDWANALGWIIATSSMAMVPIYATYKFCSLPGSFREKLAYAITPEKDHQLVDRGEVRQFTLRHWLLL

Structure (SMILES)	Ki
Fc1ccc(C(OCCN2CC3CC(C2)N3Cc2cc3ccccc3s2)c2ccc(F)cc2)cc1	35 nM
Fc1ccc(C(OCCN2CC3CC(C2)N3Cc2cc3ccccc3o2)c2ccc(F)cc2)cc1	37.5 nM
Fc1ccc(C(OCCN2CC3CC(C2)N3CC2=Cc3ccccc3C2)c2ccc(F)cc2)cc1	6.5 nM
Cc1ccccc1/C=C/CN1C2CC1CN(CCOC(c1ccc(F)cc1)c1ccc(F)cc1)C2	6.25 nM
Fc1ccc(C(OCCN2CC3CC(C2)N3C/C=C/c2ccccc2)c2ccc(F)cc2)cc1	9.1 nM
Fc1ccc(C(OCCN2CC3CC(C2)N3C/C=C/c2cccs2)c2ccc(F)cc2)cc1	12.6 nM
Fc1ccc(C(OCCN2CC3CC(C2)N3C/C=C/c2ccco2)c2ccc(F)cc2)cc1	8.8 nM
Fc1ccc(C(OCCN2CC3CC(C2)N3C/C=C/c2ccc3ccccc3c2)c2ccc(F)cc2)cc1	45.6 nM
Fc1ccc(C(OCCN2CC3CC(C2)N3Cc2cc3ccccc3[nH]2)c2ccc(F)cc2)cc1	5.5 nM
